In patent publication US4940789A, “10,11-dihydro-5-alkyl-12-substituted-10,5-(iminomethano)-5H-d ibenzo[a,d]cycloheptenes as neuroprotectant agents” (priority 1989, dated 1990):
Like-named read-outs stand apart in the source and are kept apart here.

What was measured:
[1] = system: NMDA-induced lethality; assay: NMDA-induced lethality in mice (survival; standard experimental test procedure); type: in vivo, male Swiss-albino mice (CD-1 strain); settings: for ED50: Mus musculus, 0.5 h; for ED50 / ED50 Inhibition of NMDA-Induced Lethality, I.P. (dose required to produce 50% survival rate): NMDA 195 mg/kg i.p., 30 min pretreatment; for IP/PO Ratio: ED50 inhibition of NMDA-induced lethality, I.P. over P.O.; for Percent of animals which survived at the dose indicated (NMDA-induced lethality): I.P.; for Relative potency, antagonism of NMDA-induced lethality vs ataxia (in words): traction reflex deficit model
Protocol: The mice were pretreated with the representative test compounds followed thirty minutes later with NMDA (195 mg/kg, i.p., the ED90 dose for generalized myoclonus). The mice were then observed for 30 minutes, noting the latency of onset of generalized myoclonus (uncontrollable hind leg scratching or limbs and/or torso muscle jerking with loss of righting reflex) and death. From the latter, the ED50 for survival is determined. In this standard experimental test procedure, the specific compounds tested and their activity, which representatively establish the activity for all the compounds herein, is presented in Table I as follows: […]

[2] = Traction reflex deficit (ataxia) in mice; settings: mouse, in vivo, ip, I.P., read-out: TD50 - Traction Reflex Deficit, I.P. (dose which produced the deficit in 50% of animals tested)
Excerpt: In fact, the separation between a compounds's NMDA-antagonist activity and ataxic activity (often expressed as an "efficacy ratio" of the ED50 's of these two activities) has been extensively used to evaluate its therapeutic usefulness versus its liabilities.
^@ As measured in mice. Defined as the dose which produced the defici

[3] = result in words; cited from earlier work
[4] = system: cell death in cerebral ischemia models; settings: result in words; cited from earlier work
[5] = system: high-affinity PCP binding site in the NMDA-associated ion channel; settings: result in words; cited from earlier work
[6] = ip, intraperitoneal injection, read-out: ED50 Inhibition of NMDA-Induced Lethality, I.P. (dose required to produce 50% survival rate)

Structure (SMILES)	ED50 [1, 6] [mg/kg]	TD50 [2] [mg/kg]	further results
COc1ccc2c(c1)[C@]13CCCC[C@@H]1[C@H](C2)N(C)CC3 [Dextromethorphan, reference compound]	21	45	
CN1CC[C@@]23CCCC[C@@H]2[C@@H]1Cc1ccc(O)cc13 [Dextrorphan, dextrorphan, reference compound]		29	Efficacy ratio for antagonizing NMDA-induced lethality over ataxia (in words) ([1]; comparison with reference NMDA antagonists): essentially the same as that for dextromethorphan; ED50 Inhibition of NMDA-Induced Lethality, I.P. (dose required to produce 50% survival rate) ([1]; intraperitoneal injection): 13 mg/kg
CN1CC2(C)c3ccccc3CC1c1ccccc12 (stereo not shown) [Example 1, 10,11-Dihydro-5,12-dimethyl-10,5-(iminomethano)-5H-dibenzo[a,d]cycloheptene]	3.1	13	
CC12CN(CCc3ccccn3)C(Cc3ccccc31)c1ccccc12 (stereo not shown) [Example 2, 10,11-Dihydro-5-methyl-12-[2-(2-pyridinyl)ethyl]10,5-(iminomethano)-5H-dibenzo[a,d]cycloheptene]	9.8	67	IP/PO Ratio [1]: 0.57
CC12CN(CCc3ccncc3)C(Cc3ccccc31)c1ccccc12 (stereo not shown) [Example 3, 10,11-Dihydro-5-methyl-12-[2-(4-pyridinyl)ethyl]10,5-(iminomethano)-5H-dibenzo[a,d]cycloheptene]	18	83	
CC12CN(CCc3cnccn3)C(Cc3ccccc31)c1ccccc12 (stereo not shown) [Example 4, 10,11-Dihydro-5-methyl-12-(2-pyrazinylethyl)-10,5-(iminomethano)-5H-dibenzo-cycloheptene]	12	30	
CN(C)CCCN1CC2(C)c3ccccc3CC1c1ccccc12 (stereo not shown) [Example 5, 10,11-Dihydro-N,N,5-trimethyl-10,5-(iminomethano)-5H-dibenzo[a,d]cycloheptene-12-propanamine]			Percent of animals which survived at the dose indicated (NMDA-induced lethality) ([1]; at 100 mg/g (so in the source)): 66%
CC12CN(Cc3ccccn3)C(Cc3ccccc31)c1ccccc12 (stereo not shown) [Example 6, 10,11-Dihydro-5-methyl-12-(2-pyridinylmethyl)-10,5-(iminomethano)-5H-dibenzo[a,d]cycloheptene]			Percent of animals which survived at the dose indicated (NMDA-induced lethality) ([1]; at 20 mg/kg): 66%
CC12CN(CCc3ccc4ccccc4n3)C(Cc3ccccc31)c1ccccc12 (stereo not shown) [Example 7, 10,11-Dihydro-5-methyl-12-[2-(2-quinolinyl)ethyl]-10,5-(iminomethano)-5H-dibenzo[a,d]cycloheptene]	> 20		
Cc1cccc(CCN2CC3(C)c4ccccc4CC2c2ccccc23)n1 (stereo not shown) [Example 8, 10,11-Dihydro-5-methyl-12-[2-(6-methyl-2-pyridinyl)ethyl]-10,5-(iminomethano)-5H-dibenzo[a,d]cycloheptene]	13	68	
CC12CN(CCc3ccccc3)C(Cc3ccccc31)c1ccccc12 (stereo not shown) [Example 9, 10,11-Dihydro-5-methyl-12-(2-phenylethyl)-10,5-(iminomethano)-5H-dibenzo[a,d]cycloheptene]			Percent of animals which survived at the dose indicated (NMDA-induced lethality) ([1]; at 20 mg/kg): 17%
CC(C)N1CC2(C)c3ccccc3CC1c1ccccc12 (stereo not shown) [Example 10, 10,11-Dihydro-5-methyl-12-(2-propyl)-10,5-(iminomethano)-5H-dibenzo[a,d]cycloheptene]			Percent of animals which survived at the dose indicated (NMDA-induced lethality) ([1]; at 10 mg/kg): 100%
CC(=O)N1CC2(C)c3ccccc3CC1c1ccccc12 (stereo not shown) [Example 11, 10,11-Dihydro-5-methyl-10,5-(iminomethano)-5H-dibenzo[a,d]cycloheptene-12-acetamide]			Percent of animals which survived at the dose indicated (NMDA-induced lethality) ([1]; at 10 mg/kg): 10%
C[C@]12N[C@H](Cc3ccccc31)c1ccccc12 [MK-801, reference compound]	0.19	0.17	IP/PO Ratio [1]: 0.58; ED50 ([1]; oral administration, read-out: ED50 Inhibition of NMDA-Induced Lethality, P.O. (dose required to produce 50% survival rate)): 0.32 mg/kg; Relative potency, antagonism of NMDA-induced lethality vs ataxia (in words) [1]: no separation; Generalization for PCP in drug discrimination [3]: generalizes for PCP; Protection against cell death in cerebral ischemia models [4]: protects against cell death in cerebral ischemia models; Competition for the high-affinity PCP binding site [5]: competes for the high-affinity PCP binding site
c1ccc(C2(N3CCCCC3)CCCCC2)cc1 [PCP, phencyclidine, reference compound]		2.7	ED50 Inhibition of NMDA-Induced Lethality, I.P. (dose required to produce 50% survival rate) ([1]; intraperitoneal injection): 1.9 mg/kg; Relative potency, antagonism of NMDA-induced lethality vs ataxia (in words) [1]: approximately equipotent; Protection against cell death in cerebral ischemia models [4]: protects against cell death in cerebral ischemia models
